Assay results taken from US11596620B2, “Formulations with reduced oxidation” (Genentech, Inc., priority 2013, dated 2023).

How the values were obtained:
[1] = Photosensitivity screening assay (H2O2 by Amplex Ultra Red after light exposure); type: physicochemical
Experimental: As a screening tool, antioxidant candidates were exposed to light for four hours at 250 W/m^2 and the resulting H2O2 formation was quantified by the Amplexassay. Specifically, antioxidants were prepared to 1 mM in 20 mM histidine acetate buffer at pH 5.5. The 1 mM antioxidant solutions were aliquoted into glass vials (2 mL/glass vial) and exposed to four hours of light at 250 W/m^2 in an Atlas SunTest CPS+ Xenon Test Instrument (Chicago, Ill.). Total UV dose was 90 watt-hours/square meter and total visible dose was 0.22 million lux hours over the 4-hour period. Control vials were wrapped in aluminum foil and treated similarly. The amount of hydrogen peroxide generated after exposure to light was measured using the Amplex® Ultra Red Assay (Invitrogen, Carlsbad, Calif.) following the manufacturer's recommended procedure. On addition of horseradish peroxidase (HRP), the dye reacted 1:1 stoichiometrically with H2O2, resulting in the production of fluorescent oxidation product resorufin. In this study, fluorescence readings were obtained using a Spectra Max M2 Micro-plate Reader (Molecular Devices, Sunnyvale, Calif.) with excitation and emission set at 560 nm and 590 nm, respectively. Final H2O2 concentrations were determined using a standard curve ranging from 0 μm to 20 μm.

[2] = Cyclic voltammetry (CV) screening assay, oxidation potential; type: physicochemical
Experimental: The oxidation/reduction characteristics of the compounds were investigated. Several compounds, including L-Trp and derivatives, were evaluated for the protection of Trp oxidation in proteins using cyclic voltammetry (CV) and rank ordered based on their oxidation potentials (Table 2). Specifically, the candidate antioxidants were dissolved in deionized water and then added to a 0.2 M lithium perchlorate electrolyte solution. […] Solutions were scanned from −0.10 V to +1.50 V at a scan rate of either 100 or 500 mV/sec. The analytical cell was purged for four minutes with nitrogen before scanning of each antioxidant solution. The input was a linear scan of the potential of a working electrode, and the output was measurement of the resulting current. […] Redox reactions were characterized by sharp increases or decreases in current (peaks). The potential at which an oxidation reaction occurred was referred to as the anodic peak potential (or oxidation potential), and the potential at which a reduction occurred was referred to as is the cathodic peak (or reduction) potential.

mAb1 [3] = experiment: mAb1 light stress study (16 hours at 250 W/m^2), RP-HPLC; type: physicochemical, human; conditions: 16 hours of light at 250 W/m^2; for Fab oxidation increase over the control level (mAb1 Ref Mat): excipient 1 mM or none; for Light-induced Fc oxidation, effect in words / Light-induced Fab oxidation, effect in words: excipient 1 mM; for Light-induced Fc oxidation, effect in words: compared to no excipient
Experimental: (§1) The fragments were reduced with DTT, and then separated and identified via Liquid Chromatography-Mass Spectrometry (LC-MS). […] Comparison of area integrated under the oxidized and native peaks was used to quantify HC Fab and Fc oxidation. […] By using the papain digest RP-HPLC method in the present study it was possible to investigate Trp residue oxidation by quantifying HC Fab oxidation, and Met residue oxidation by quantifying HC Fc oxidation.
Antioxidants were added at 1 mM. Glass vials containing these formulations were exposed to 250 W/m^2 light in an Atlas SunTest CPS+ Xenon Test Instrument (Chicago, Ill.). Control vials were wrapped in aluminum foil and treated similarly. After light exposure, solutions were prepared for analysis by reverse-phase HPLC as described above.

mAb1 [4] = experiment: mAb1 AAPH stress study, RP-HPLC; type: physicochemical, human; conditions: for Fab (Trp residue) oxidation: mAb1 with AAPH for 24 hours at 40° C., antioxidants at 1 mM or none
Experimental: as §1
Antioxidants were added at 1 mM. […] After buffer exchange, each solution was prepared for analysis by reverse-phase HPLC as described above.

mAb1 [5] = experiment: Light stress of mAb1 formulation (eight hours at 250 W/m^2), papain digest RP-HPLC; type: physicochemical, human; conditions: for Fc oxidation, effect in words: no excipient, or 10, 25, 50 and 100 mM L-Met added to 1 mM L-Trp
Experimental: L-tryptophan (L-Trp), an antioxidant used in protein formulations, has been recently shown to be photosensitive (Igarashi et al., Anal Sci 23(8):943-8 (2007)) and to have the ability to produce H2O2 upon light exposure. […] Control vials were wrapped in aluminum foil and treated similarly. After light exposure, solutions were prepared for analysis by reverse-phase HPLC. […] Following incubation, 900 μL of the solution was combined with 100 μL of 1 M dithiothreitol (DTT) and incubated for another thirty minutes at 37° C. Samples were then run on an Agilent, Inc. 1100/1200 HPLC system (Santa Clara, Calif.) equipped with UV detection at 280 nm in conjunction with a Varian, Inc. Pursuit 3 μm, 2 mm ID×250 mm diphenyl column (Palo Alto, Calif.). Mobile Phase A was 0.1% TFA in water. Mobile Phase B was 0.1% TFA in acetonitrile. The mobile phase gradient increased linearly from 34% B at 0 minutes to 43% B at 50.0 minutes, then to 95% B at 50.1 minutes. The gradient remained at 95% B until 60.1 minutes, and then decreased linearly from 95% B to 34% B between 60.1 and 60.2 minutes. The gradient remained at 34% B until the end of the cycle at 80.2 minutes. The column temperature was 65° C., total flow rate was 0.2 mL/min, and injection volume of each sample was 6 μL. Chromatograms were then integrated for quantification of oxidation.

mAb1 [6] = experiment: mAb1 Fenton stress study (H2O2 + Fe), RP-HPLC; type: physicochemical, human; conditions: 10 ppm H2O2 and 0.2 mM Fe(III), 40° C. for 3 hours; no excipient
Experimental: Antioxidants were added at a final concentration of 1 mM. […] After incubation, each reaction was quenched by addition of 100 mM L-Met and then prepared for analysis by reverse-phase HPLC as described above.
The Fenton reaction, using a mixture of H2O2 and Fe ions, generates oxidation through a metal catalyzed, hydroxyl radical reaction (Prousek et al., Pure and Applied Chemistry 79(12):2325-2338 (2007)). This reaction generated Fab, i.e. tryptophan, oxidation in mAb1. The reaction was also carried out in the presence of select antioxidants that were useful against both AAPH and light induced oxidation as reported above. Data related to the antioxidant properties against Fenton mediated reaction were analyzed using the RP-HPLC assay as described above. The Fenton reaction used 10 ppm of H2O2 and 0.2 mM of Fe(III). The reaction was incubated at 40° C. for 3 hours, quenched with 100 mM L-Met and analyzed using RP-HPLC after papain digest. All samples were the average of three separate vials, and mAb1 control (Ref Mat) was one vial with five independent injections on the HPLC. […] In regards to protection against Fc oxidation, the tested excipients (other than salicylic acid) performed slightly better than L-Trp.

[7] = 1 mM in 20 mM histidine acetate pH 5.5, four hours of light at 250 W/m^2
[8] = anodic peak potential, glassy carbon working electrode, 0.2M lithium perchlorate
[9] = eight hours of light at 250 W/m^2

Compound | (H2O2 produced by Compound)/(H2O2 produced by L-Trp) [1, 7] | Oxidation Potential [2, 8] [V vs Ag/AgCl] | Fab oxidation increase over the control level (mAb1 Ref Mat) (mAb1 [3]) [fold] | Fab (Trp residue) oxidation (mAb1 [4]) | Light-induced Fab oxidation, effect in words (mAb1 [3]) | further results
NC(=O)[C@@H](N)Cc1c[nH]c2ccccc12 [L-Trpamide, L-tryptophanamide] | 0.43 | 1.015 | 8 |  |  | Oxidation potential relative to L-Trp, in words ([2]; cyclic voltammetry): higher oxidation potential than L-Trp; Light-induced Fc oxidation, effect in words (mAb1 [3]): more Fc oxidation
N[C@@H](Cc1c[nH]c2ccc(O)cc12)C(=O)O [5-Hydroxy-L-Trp, 5-hydroxy-L-tryptophan] | 0.09 | 0.565 |  | about 2% | near control levels | H2O2 produced compared to L-Trp, in words [1, 7]: about one tenth
Oc1cccc2cc[nH]c12 [7-Hydroxyindole] | −0.03 |  |  | about 2% | near control levels | 
CSCC[C@H](N)C(=O)O [L-Met, L-methionine] |  |  |  |  |  | Fab oxidation, effect in words (mAb1 [5]; 10, 25, 50, and 100 mM L-Met added to formulation containing 1 mM L-Trp, eight hours of light): appeared to reduce Fab oxidation slightly; Fc oxidation, effect in words (mAb1 [5]; [9]): reduced the amount of Fc oxidation
NCCc1c[nH]c2ccc(O)cc12 [Serotonin (5-Hydroxytryptamine), 5-Hydroxytryptamine] | 0.03 | 0.600 |  | about 2% | near control levels | H2O2 produced compared to L-Trp, in words [1, 7]: very little H2O2
Oc1ccc2[nH]ccc2c1 [5-Hydroxyindole] | −0.08 | 0.580 |  | about 2% | near control levels | 
O=C(O)c1ccccc1O [Salicylic Acid] |  | 1.080 | 8 |  |  | (H2O2 produced by Compound)/(H2O2 produced by L-Trp) ([1]; pH 5.5): 0.03; H2O2 produced compared to L-Trp, in words ([1]; pH 5.5): very little H2O2; Oxidation potential relative to L-Trp, in words ([2]; cyclic voltammetry): higher oxidation potential than L-Trp; Oxidation Potential ([2]; cyclic voltammetry, 0.2 M lithium perchlorate): 1.080 V vs Ag/AgCl; AAPH-induced Fab oxidation, effect in words (mAb1 [4]; excipient 1 mM, AAPH 24 hours at 40° C.): almost no effect; Light-induced Fc oxidation, effect in words (mAb1 [3]): more Fc oxidation
drozitumab [mAb1] |  |  | 3.5 |  |  | Increase in Fc oxidation over the control level (mAb1 [3]; no excipient): 40%; Fc oxidation, effect in words (mAb1 [5]; [9]): only a minor increase in Fc oxidation; Fab oxidation (mAb1 [5]; mAb1 5 mg/mL, eight hours of light at 250 W/m^2, no excipient or 1 mM L-Trp, reference material and foil control about 2%): 4%; Oxidation in the Fab region over the control (mAb1 [6]): about four times
